Laboratory results from patent publication US6534504B1, “Indazolyloxy propanolamines for improving livestock production” (Eli Lilly and Company, priority 1999, dated 2003).
Where two headings read alike, the source gives them in different places.

Experiments:
cattle [1] = test: Oral administration (gavage) to cattle: serum NEFA and SUN levels; format: in vivo, cattle (Angus/Angus cross steer calves); details: 1 mg per kilogram body weight oral gavage, mean of five animals; for change in vivo at 1 mg/kg: Bos taurus
Protocol: In the present example, fifteen head of Angus/Angus cross steer calves, weighing approximately 484 pounds (220 kg) initially to 604 pounds (274 kg) by the end of these three trials, were placed in pens in the cattle facilities, at 5 calves per pen. Standard vaccination and coccidal control were administered.
Calves were fed ad libitum twice daily, approximately 10-15 pounds (4.54-6.81 kg)/day. The feeding times were staggered once treatment was initiatedto ensure that all calves were fed approximately one hour before the treatments were administered and blood samples were obtained. During the A.M. treatment period, the cattle were prevented from returning to feed until the +180 minute blood sample had been collected.
Treatments were administered once a day via oral gavage. The treatments contained 1 mg of test compound per kilogram body weight and were administered in a 50/50 PEG 200/water vehicle, followed with a flush of 20 mls of 50/50 PEG 200/water.
A baseline blood sample (T=0) was taken immediately before the oral gavage treatment was administered. At 90 minutes post-treatment (T+90 min) another blood sample was taken. The cattle were returned to their designated pens until 180 minutes post-treatment (T+180 min), when a third blood sample was collected. The calves were not allowed access to their feed until they had completed the 180 minute blood sample. Additional blood samples were collected from each calf at 24 and 48 hours post treatment.
All blood samples were taken from the jugular vein and placed into serum tubes. Serum was assayed on an IL Monarch analyzer. Blood samples were collected pretreatment (T=0), 90 minutes post-treatment (T+90 min), 180 minutes post-treatment (T+180 min) and 24 hours post-treatment (T+24 h) and 48 hours post-treatment (T+48 h). Sera at T=0, T+90 min, T+180 min, T+24 h, and T+48 h were analyzed for NEFA and SUN.

chickens = test: Anabolic effects when administered in feed to chickens; format: in vivo, chicken (Peterson-Hubbard male chicks)
Description: Approximately 1500 Peterson-Hubbard day-old male chicks were used in a randomized, complete block design with 6 treatments (Control; Clenbuterol at 1 PPM; Compound 1 at 3 and 15 PPM (mg/kg feed); and Compound 5 at 3 and 15 PPM) using pen location in the barn as the blocking factor. Treatments were randomly allotted to pens within each block for a total of 6 pens per block and 6 blocks in the wing. Each treatment consisted of 6 pens, with 10 birds per pen, during the experimental period.
Day-of-age birds were obtained from Pine Manor Hatchery in Goshen, Ind. Approximately 40 birds per pen were setup at random upon receipt. On day 30 of the growout period, all birds were weighed and the 15 birds closest to the block mean were selected. These birds were allowed to acclimate until day 35 of age. On this day, all remaining birds were weighed again, and the 10 birds/pen closest to the block mean were chosen for the treatment phase. Birds were provided ad libitum access to feed and water throughout the trial. All birds were fed a 23% crude protein corn-soy ration from day 1 until day 18 of age. The feed was changed to a 20% crude protein corn-soy ration for day 18 to day 49. The treatment feed was mixed using the 20% crude protein corn-soy basal ration. Treatments were administered in the feed from day 35 through day 49. Feed consumption was calculated over the entire 14 day treatment period. Birds were weighed at trial completion (day 49), and transported to Purdue University meat laboratory for slaughter and carcass measurements on day 50. Weights of the hot carcass, fat pad, and viscera were taken on all animals. Weights of the bone-in, skin-on breast, and the bone-in, skin-on leg quarters were taken only on the control treatment and the high doses of both experimental compounds.

cattle [2] = test: Intravenous administration to cattle: serum NEFA and SUN levels; format: in vivo, cattle (Angus/Angus cross calves); details: mean of five animals; for Δ % SUN 24 Hours (percent decrease in serum urea nitrogen compared with baseline T=0) / ΔNEFA 24 Hours (increase in NEFA in blood compared with baseline T=0): 40 μg per kilogram intravenously at 6:30 A.M. and 2:30 P.M., 24 hours post treatment; for ΔNEFA 15 Min. (increase in NEFA in blood compared with baseline T=0): 40 μg per kilogram intravenously, 15 minutes post treatment
Description: Angus/Angus cross steer calves, both heifers and steers, weighing approximately 282 pounds (128 kg) initially to 788 pounds (358 kg) over the course of these studies, were placed in pens at 5 calves per pen. The cattle were acclimated to the pens for at least 1 week prior to initiating the study.
Calves were fed ad libitum twice daily, (approximately 6-15 pounds (2.7-6.8 kg)/day). During the treatment day, in the A.M. period, the feeding times were staggered to ensure that all animals were fed approximately one hour before the treatments were administered. During the P.M. treatment period, the cattle were fed immediately after receiving the P.M. injection.
After taking a pretreatment (T=0) blood sample from each animal, 40 μg per kilogram of a test compound was administered intravenously in the jugular vein at 6:30 A.M. and 2:30 P.M. Each test compound was administered at a concentration of 1.00-1.25 mg/ml in a treatment vehicle that was a 50/50 mixture of polyethylene glycol 200/water.
A blood sample was taken at fifteen minutes post-treatment (T+15 min). The calves were returned to their respective pens until their next treatment, approximately eight hours later. The next morning at 6:30 A.M. a blood sample was collected from all calves at 24 hours post-treatment (T+24h). All blood samples were analyzed for the non-esterified fatty acid level (NEFA) and serum urea nitrogen level (SUN). The post-treatment NEFA and SUN levels in each individual animal were compared with the levels found before treatment.

[3] = 24 hours post treatment, read-out: Δ % SUN 24 Hours (percent decrease in serum urea nitrogen compared with baseline T=0)
[4] = 48 hours post treatment, read-out: Δ % SUN 48 Hours (percent decrease in serum urea nitrogen compared with baseline T=0)
[5] = 1 PPM in feed, 14 day treatment period
[6] = 3 PPM in feed, 14 day treatment period
[7] = 3 PPM in feed, 14 day treatment period (day 35 to 49)
[8] = 15 PPM in feed, 14 day treatment period
[9] = 15 PPM in feed, 14 day treatment period (day 35 to 49)

| Structure (SMILES) | ΔNEFA 24 Hours (increase in NEFA in blood compared with baseline T=0) (cattle [1]; 24 hours post treatment) [µmol/L] | change in vivo at 1 mg/kg (cattle [1]; [3]) [%] | change in vivo at 1 mg/kg (cattle [1]; [4]) [%] | improvement in feed conversion versus control (chickens; [5]) | increase in weight gain over control (chickens; [5]) [%] | Δ % SUN 24 Hours (percent decrease in serum urea nitrogen compared with baseline T=0) (cattle [2]) [%] | ΔNEFA 24 Hours (increase in NEFA in blood compared with baseline T=0) (cattle [2]) [µmol/L] | ΔNEFA 15 Min. (increase in NEFA in blood compared with baseline T=0) (cattle [2]) [µmol/L] | improvement of feed efficiency (chickens; [6]) | increase in weight gain over control (chickens; [7]) [%] | improvement of feed efficiency (chickens; [8]) [%] | increase in weight gain over control (chickens; [9]) [%] |
| --- | --- | --- | --- | --- | --- | --- | --- | --- | --- | --- | --- | --- |
| CC(C)(Cc1ccc(Oc2ccc(C(N)=O)cc2)cc1)NC[C@H](O)COc1cccc2[nH]c(=S)[nH]c12 | 17 | -8 | -12 | – | – | – | – | – | – | – | – | – |
| CC(C)(Cc1ccc(Oc2ncccc2C(N)=O)cc1)NC[C@H](O)COc1cccc2[nH]ccc12 | -30 | -42 | -30 | – | – | – | – | – | – | – | – | – |
| CC(C)(Cc1ccc(Oc2ncccc2C(N)=O)cc1)NC[C@H](O)COc1cccc2[nH]c(=S)[nH]c12 | 101 | -17 | -13 | – | – | – | – | – | – | – | – | – |
| CC(C)(Cc1ccc(Oc2ncccc2C(N)=O)cc1)NC[C@H](O)COc1cccc2[nH]c(=O)[nH]c12 | 10 | -22 | -19 | – | – | – | – | – | – | – | – | – |
| CC(C)(Cc1ccc(Oc2ccc(C#N)cn2)cc1)NC[C@H](O)COc1cccc2[nH]ccc12 | 63 | -55 | -40 | – | – | – | – | – | – | – | – | – |
| CC(C)(Cc1ccc(Oc2ccc(C#N)cn2)cc1)NC[C@H](O)COc1cccc2[nH]c(=O)[nH]c12 | 18 | 2 | 5 | – | – | – | – | – | – | – | – | – |
| CC(C)(Cc1ccc(Oc2ccc(C(=O)N3CCOCC3)cn2)cc1)NC[C@H](O)COc1cccc2[nH]ccc12 | -47 | -45 | -28 | – | – | – | – | – | – | – | – | – |
| CC(C)(Cc1ccc(Oc2ccc(C(=O)N3CCOCC3)cn2)cc1)NC[C@H](O)COc1cccc2[nH]c(=S)[nH]c12 | 6 | -18 | -15 | – | – | – | – | – | – | – | – | – |
| CC(C)(Cc1ccc(Oc2ccc(S(C)(=O)=O)cc2)cc1)NC[C@H](O)COc1cccc2[nH]c(=S)[nH]c12 | 37 | -1 | -5 | – | – | – | – | – | – | – | – | – |
| CC(C)(Cc1ccc(Oc2ccc(S(C)(=O)=O)cc2)cc1)NC[C@H](O)COc1cccc2[nH]c(=O)[nH]c12 | -6 | -10 | -6 | – | – | – | – | – | – | – | – | – |
| CC(C)(C)NCC(O)c1cc(Cl)c(N)c(Cl)c1 (stereo not shown) [Clenbuterol] | – | – | – | did not show an improvement | 3.54 | – | – | – | – | – | – | – |
| CC(C)(Cc1ccc(Oc2ccc(C(N)=O)cn2)cc1)NC[C@H](O)COc1cccc2[nH]ncc12 [Compound 1] | 329 | -38 | -32 | – | – | −28.7 | 820.9 | 554.4 | not improved | 3.54 | 4.67 | 11.50 |
| CC(C)(Cc1ccc(Oc2ccc(C#N)cn2)cc1)NC[C@H](O)COc1cccc2[nH]ncc12 [Compound 3] | 349 | -58 | -57 | – | – | −24.7 | 1069.3 | 269.4 | – | – | – | – |
| CC(C)(Cc1ccc(Oc2ccc(C(=O)N3CCOCC3)cn2)cc1)NC[C@H](O)COc1cccc2[nH]ncc12 [Compound 4] | 1129 | -47 | -48 | – | – | −40.1 | 1251.8 | 194.8 | – | – | – | – |
| CC(C)(Cc1ccc(Oc2ccc(S(C)(=O)=O)cc2)cc1)NC[C@H](O)COc1cccc2[nH]ncc12 [Compound 5] | 1216 | -33 | -60 | – | – | −25.4 | 1541.9 | 397.3 | not improved | 2.65 | 3.27 | 8.85 |
